The structures appear in SMILES notation.

The source of these data is patent US9249132B2, “Substituted bicyclic aromatic compounds as S-nitrosoglutathione reductase inhibitors” (Nivalis Therapeutics, Inc., priority 2010, dated 2016).

The subject of one data set is dextran sodium sulfate (DSS)-induced IBD. Put plainly: Acute prophylactic model of DSS-induced IBD. To be noted: acute DSS-induced IBD. In kind it is in vivo, mouse. The source says:
Acute and chronic models of dextran sodium sulfate (DSS)-induced IBD in mice were used to explore efficacy of GSNORi against this disease. Acute and chronic DSS-induced IBD are widely used and well characterized models that induce pathological changes in the colon similar to those observed in the human disease. In these models and in human disease, epithelial cells within the crypts of the colon are disrupted, leading to dysfunction of the epithelial barrier and the ensuing tissue inflammation, edema, and ulceration. GSNORi therapy may benefit IBD by restoring s-nitrosoglutathione (GSNO) levels, and thus prevent or reverse the epithelial barrier dysfunction. Experimental IBD was induced by administration of DSS in the drinking water of male C57B1/6 mice (N=8 to 10 mice per group) for 6 consecutive days. GSNORi was dosed orally at doses of 0.1 to 10 mg/kg/day for 10 days starting two days prior to and continuing two days post DSS exposure. Two days post DSS exposure, the effect of GSNORi was assessed in a blinded fashion via endoscopy and histopathology using a five point scale ranging from a score=0 (normal tissue) through a score=4 (ulcerative tissue damage and marked pathological changes). Levels of circulating cytokines involved in inflammatory pathways were also assessed. The effect of GSNORi was compared to vehicle treated controls. The corticosteroid, prednisolone, was used as the positive control in this study and was administered daily at 3 mg/kg/day via oral dosing. Naïve mice (N=5) were also assessed as a normal tissue control.
For the compound `O=C(O)c1ccc(-c2ccc3cc(O)ccc3c2)c(F)c1` [Example 2, 3-fluoro-4-(6-hydroxynaphthalen-2-yl)benzoic acid], the “colon injury (in words)” value is “attenuated colon injury”.

Still in this data set, the particulars now being: acute model; oral 10 mg/kg/day for 10 consecutive days, prophylactic dosing regimen.
For `O=C(O)c1ccc(-c2ccc3cc(O)ccc3c2)c(F)c1` [Example 2, 3-fluoro-4-(6-hydroxynaphthalen-2-yl)benzoic acid], the “decrease of percent of mice presenting with severe colon injury scores via histopathology, of vehicle control” value was found to be 26%.

The same data set, now with this note: acute model; oral 10 mg/kg/day for 10 days; p<0.05.
Turning to `O=C(O)c1ccc(-c2ccc3cc(O)ccc3c2)c(F)c1` [Example 2, 3-fluoro-4-(6-hydroxynaphthalen-2-yl)benzoic acid], the “decrease of percent of mice presenting with severe endoscopy scores, of vehicle control” value turned out to be 58%.

For a further data set, the target named is T1, GSNOR (Homo sapiens, UniProt P11766).
T1 construct: made in house; host or cells: E. coli
T1 sequence (P11766 whole entry): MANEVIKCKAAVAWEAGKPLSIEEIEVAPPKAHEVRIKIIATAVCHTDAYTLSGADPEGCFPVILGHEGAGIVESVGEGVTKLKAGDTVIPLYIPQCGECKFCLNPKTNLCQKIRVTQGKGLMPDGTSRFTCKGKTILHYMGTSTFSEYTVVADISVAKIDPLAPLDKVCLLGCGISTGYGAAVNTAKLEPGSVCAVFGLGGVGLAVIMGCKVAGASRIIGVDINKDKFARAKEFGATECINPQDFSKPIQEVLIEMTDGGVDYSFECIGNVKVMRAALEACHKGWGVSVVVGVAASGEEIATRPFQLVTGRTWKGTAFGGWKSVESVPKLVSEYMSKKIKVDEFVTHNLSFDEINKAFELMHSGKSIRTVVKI
Put plainly: GSNOR assay (inhibition of GSNOR activity, change in 340 nm absorbance). In kind it is biochemical. The note with it: 100 mM NaPO4 pH 7.4, 0.240 mM GSNO, 0.300 mM NADH, 0.5 μg/mL GSNO Reductase, 1% DMSO, 25° C. How it is done: Various compounds were tested in vitro for their ability to inhibit GSNOR activity.
GSNOR expression and purification is described in Biochemistry 2000, 39, 10720-10729.
GSNOR Fermentation: Pre-cultures were grown from stabs of a GSNOR glycerol stock in 2XYT media containing 100 ug/ml ampicillin after an overnight incubation at 37° C. Cells were then added to fresh 2XYT (4 L) containing ampicillin and grown to an OD (A600) of 0.6-0.9 at 37° C. before induction. GSNOR expression was induced with 0.1% arabinose in an overnight incubation at 20° C.
GSNOR Purification: E. coli cell paste was lysed by nitrogen cavitation and the clarified lysate purified by Ni affinity chromatography on an AKTA FPLC (Amersham Pharmacia). The column was eluted in 20 mM Tris pH 8.0/250 mM NaCl with a 0-500 mM imidazole gradient. Eluted GSNOR fractions containing the Smt-GSNOR fusion were digested overnight with Ulp-1 at 4° C. to remove the affinity tag then re-run on the Ni column under the same conditions. GSNOR was recovered in the flowthrough fraction and for crystallography is further purified by Q-Sepharose and Heparin flowthrough chromatography in 20 mM Tris pH 8.0, 1 mM DTT, 10 uM ZnSO4.
GSNOR Assay: GSNO and enzyme/NADH Solutions are made up fresh each day. The solutions are filtered and allowed to warm to room temperature. GSNO solution: 100 mM NaPO4 (pH 7.4), 0.480 mM GSNO. 396 μL of GSNO Solution is added to a cuvette followed by 8 μL of test compound in DMSO (or DMSO only for full reaction control) and mixed with the pipette tip. Compounds to be tested are made up at a stock concentration of 10 mM in 100% DMSO. 2 fold serial dilutions are done in 100% DMSO. 8 μL of each dilution are added to an assay so that the final concentration of DMSO in the assay is 1%. The concentrations of compounds tested range from 100 to 0.003 μM. Enzyme/NADH solution: 100 mM NaPO4 (pH 7.4), 0.600 mM NADH, 1.0 μg/mL GSNO Reductase. 396 μL of the Enzyme/NADH solution is added to the cuvette to start the reaction. The cuvette is placed in the Cary 3E UV/Visible Spectrophotometer and the change in 340 nm absorbance/min at 25° C. is recorded for 3 minutes. The assays are done in triplicate for each compound concentration. IC50's for each compound are calculated using the standard curve analysis in the Enzyme Kinetics Module of SigmaPlot.
Final assay conditions: 100 mM NaPO4, pH 7.4, 0.240 mM GSNO, 0.300 mM NADH, 0.5 μg/mL GSNO Reductase, and 1% DMSO. Final volume: 800 μL/cuvette.
One may read the IC50 as the concentration at which inhibition is half-maximal. In turn, `O=C(O)c1ccc(-c2ccc3cc(O)ccc3c2)c(F)c1` [Example 2, 3-fluoro-4-(6-hydroxynaphthalen-2-yl)benzoic acid] displayed an IC50 of less than 50 nM.

As to `COc1cc(C(=O)O)ccc1-c1ccc2cc(O)ccc2c1` [Example 3, 4-(6-hydroxynaphthalen-2-yl)-3-methoxybenzoic acid], the IC50 was less than 100 nM.

For the compound `CN(C)c1cc(C(=O)O)ccc1-c1ccc2cc(O)ccc2c1` [Example 5, 3-(dimethylamino)-4-(6-hydroxynaphthalen-2-yl)benzoic acid], the IC50 is less than 100 nM.

`N#Cc1cc(C(=O)O)ccc1-c1ccc2cc(O)ccc2c1` [Example 6, 3-cyano-4-(6-hydroxynaphthalen-2-yl)benzoic acid] yielded an IC50 of less than 50 nM.

Consider `O=C(O)c1ccc(-c2ccc3cc(O)ccc3c2Br)cc1` [Example 12, 4-(1-bromo-6-hydroxynaphthalen-2-yl)benzoic acid], for which the IC50 is less than 50 nM.

`N#Cc1c(-c2ccc(C(=O)O)cc2)ccc2cc(O)ccc12` [Example 15, 4-(1-cyano-6-hydroxynaphthalen-2-yl)benzoic acid] had an IC50 of less than 50 nM.

As for `O=C(O)c1ccc(-c2ccc3cc(O)ccc3c2Cl)cc1` [Example 17, 4-(1-chloro-6-hydroxynaphthalen-2-yl)benzoic acid], the 50% inhibitory concentration (IC50) is less than 50 nM.

`Oc1ccc2cc(-c3ccc(-c4nnn[nH]4)cc3)ccc2c1` [Example 18, 6-(4-(1H-tetrazol-5-yl)phenyl)naphthalen-2-ol] gave an IC50 of less than 100 nM.

In turn, `O=C(O)c1ccc(-c2ccc3cc(O)ccc3c2)c(C(F)(F)F)c1` [Example 20, 4-(6-hydroxynaphthalen-2-yl)-3-(trifluoromethyl)benzoic acid] gave an IC50 of less than 100 nM.

`O=C(O)c1ccc(-c2cc3ccc(O)cc3cc2F)c(Cl)c1` [Example 21, 3-chloro-4-(3-fluoro-6-hydroxynaphthalen-2-yl)benzoic acid]: the IC50 is less than 50 nM.

Regarding `O=C(O)c1ccc(-c2cc3ccc(O)cc3cc2Cl)cc1` [Example 22, 4-(3-chloro-6-hydroxynaphthalen-2-yl)benzoic acid], the IC50 was less than 50 nM.

As to `O=C(O)c1ccc(-c2cc3ccc(O)cc3cc2F)cc1` [Example 23, 4-(3-fluoro-6-hydroxynaphthalen-2-yl)benzoic acid], the half-maximal inhibitory concentration (IC50) was less than 50 nM.

Turning to `COc1c(-c2ccc(C(=O)O)cc2)ccc2cc(O)ccc12` [Example 24, 4-(6-hydroxy-1-methoxynaphthalen-2-yl)benzoic acid], the IC50 is less than 100 nM.

Regarding `O=C(O)c1ccc(-c2ccc3cc(O)ccc3c2F)cc1` [Example 25, 4-(1-fluoro-6-hydroxynaphthalen-2-yl)benzoic acid], the IC50 was less than 50 nM.

In turn, `Cc1cc2cc(O)ccc2cc1-c1ccc(C(=O)O)cc1` [Example 26, 4-(6-hydroxy-3-methylnaphthalen-2-yl)benzoic acid] had a half-inhibitory concentration (IC50) of less than 100 nM.

The compound `N#Cc1c(-c2ccc(C(=O)O)cc2)ccc2c(F)c(O)ccc12` [Example 27, 4-(1-cyano-5-fluoro-6-hydroxynaphthalen-2-yl)benzoic acid] returned an IC50 of less than 50 nM.

`N#Cc1c(-c2ccc(C(=O)O)cc2F)ccc2cc(O)ccc12` [Example 28, 4-(1-cyano-6-hydroxynaphthalen-2-yl)-3-fluorobenzoic acid] yielded an IC50 of less than 50 nM.

Consider `O=C(O)c1ccc(-c2ccc3c(F)c(O)ccc3c2)c(Cl)c1` [Example 29, 3-chloro-4-(5-fluoro-6-hydroxynaphthalen-2-yl)benzoic acid], for which the IC50 is less than 50 nM.

In turn, `O=C(O)c1ccc(-c2ccc3c(F)c(O)ccc3c2)cc1` [Example 30, 4-(5-fluoro-6-hydroxynaphthalen-2-yl)benzoic acid] registered an IC50 of less than 50 nM.

In turn, `O=C(O)c1ccc(-c2ccc3c(F)c(O)ccc3c2)c(F)c1` [Example 31, 3-fluoro-4-(5-fluoro-6-hydroxynaphthalen-2-yl)benzoic acid] came in with an IC50 of less than 50 nM.

As for `Cc1cc(C(=O)O)ccc1-c1ccc2c(F)c(O)ccc2c1` [Example 32, 4-(5-fluoro-6-hydroxynaphthalen-2-yl)-3-methylbenzoic acid], the IC50 is less than 50 nM.

For the compound `O=C(O)c1ccc(-c2ccc3cc(O)ccc3c2)cc1` [Example 33, 4-(6-hydroxynaphthalen-2-yl)benzoic acid], the IC50 was less than 100 nM.

Test system in a further data set: not listed separately
Put plainly: Mouse pharmacokinetic (PK) study. In kind it is in vivo. The note with it: plasma, male BALB/c mice, PO 10 mg/kg, IV 2 mg/kg. The source says: The mouse was used to determine the pharmacokinetics of compounds of the invention. This species is widely used to assess the bioavailability of compounds by administering both oral (PO) and intravenous (IV) test articles. Efficacy of the compounds of the invention was compared by assessing plasma exposure in male BALB/c mice either via IV or PO administration at the times of peak activity.
Compounds of the invention were reconstituted in a phosphate buffered saline (PBS)/10% Solutol (HS 15) clear solution resulting in a concentration of 0.2 mg/mL and administered to mice (2 mg/kg) as a single IV dose. Animals were dosed via the lateral tail vein. […] The plasma was transferred into labeled polypropylene tubes and frozen at −70° C. until analyzed by LC/MS/MS.
The compounds of the invention were reconstituted in 40% Propylene Glycol/40% Propylene Carbonate/20% of a 5% Sucrose clear solution resulting in a concentration of 2 mg/mL and administered to mice (10 mg/kg) as a single oral dose via gavage. […] The plasma was transferred into labeled polypropylene tubes and frozen at −70° C. until analyzed by LC/MS/MS.
Plasma samples at each timepoint were analyzed using a LC-MS/MS with a lower limit of quantification (LLOQ) of 1 ng/mL. […]
In addition to the above PK parameters, bioavailability (% F) was calculated.
As usually defined, the bioavailability is dose-corrected exposure relative to a reference, in per cent. As to `O=C(O)c1ccc(-c2ccc3cc(O)ccc3c2)c(F)c1` [Example 2, 3-fluoro-4-(6-hydroxynaphthalen-2-yl)benzoic acid], the bioavailability was greater than 40%.
